Results as given in ChEMBL document CHEMBL6096630, “Enhancing therapeutic efficacy in homologous recombination-proficient pancreatic cancer via the combination of PARP1-PROTAC and a BRD4 inhibitor” (Bioorg Med Chem, 2024).
The source made the active and inactive calls. No cut-off for these calls is given here.

How the values were obtained:
PANC-1 [1] = experiment: Antiproliferative activity against human PANC-1 cells expressing wild-type BRCA assessed as inhibition of cell survival incubated for 5 days by CCK8 assay; format: functional, cell-based; details: PANC-1, 120 h
BXPC-3 = experiment: Antiproliferative activity against human BXPC-3 cells expressing wild-type BRCA assessed as inhibition of cell survival incubated for 5 days by CCK8 assay; format: functional, cell-based; details: BXPC-3, 120 h
CAPAN-1 = experiment: Antiproliferative activity against human CAPAN-1 cells expressing BRCA-/- assessed as inhibition of cell survival incubated for 5 days by CCK8 assay; format: functional, cell-based; details: CAPAN-1, 120 h
PANC-1 [2] = experiment: Induction of cell cycle arrest in human PANC-1 cells assessed as accumulation at G1 phase at 2 uM incubated for 24 hrs by PI staining based flow cytometry (reference value: 51.70 %); format: functional
PANC-1 [3] = experiment: Induction of cell cycle arrest in human PANC-1 cells assessed as accumulation at S phase at 2 uM incubated for 24 hrs by PI staining based flow cytometry (reference value: 38.94 %); format: functional
PANC-1 [4] = experiment: Induction of cell cycle arrest in human PANC-1 cells assessed as accumulation at G2 phase at 2 uM incubated for 24 hrs by PI staining based flow cytometry (reference value: 9.36 %); format: functional
PANC-1 [5] = experiment: Induction of cell cycle arrest in human PANC-1 cells assessed as accumulation at G0/G1 phase at 0.12 to 2 uM incubated for 24 hrs by PI staining based flow cytometry; format: functional; details: dose 0.12-2 µM
PANC-1 [6] = experiment: Induction of apoptosis in human PANC-1 cells assessed as viable cells at 2 uM incubated for 48 hrs by Annexin V-FITC/PI staining based flow cytometry (reference value: 91.64 %); format: functional; details: read-out: Activity
PANC-1 [7] = experiment: Induction of apoptosis in human PANC-1 cells assessed as early apoptotic cells at 2 uM incubated for 48 hrs by Annexin V-FITC/PI staining based flow cytometry (reference value: 1.41 %); format: functional
PANC-1 [8] = experiment: Induction of apoptosis in human PANC-1 cells assessed as late apoptotic cells at 2 uM incubated for 48 hrs by Annexin V-FITC/PI staining based flow cytometry (reference value: 3.87 %); format: functional
PANC-1 [9] = experiment: Induction of apoptosis in human PANC-1 cells assessed as necrotic cells at 2 uM incubated for 48 hrs by Annexin V-FITC/PI staining based flow cytometry (reference value: 3.09 %); format: functional
PANC-1 [10] = experiment: Inhibition of colony formation in human PANC-1 cells at 2 uM incubated for 14 days by crystal violet staining based analysis; format: functional, cell-based; details: time 14.0 day
PANC-1 [11] = experiment: Anti-migration activity in human PANC-1 cells at 2 uM in presence of JQ1 incubated for 24 hrs by wound healing assay; format: functional, cell-based
[12] = target: Bromodomain-containing protein 4 (Homo sapiens) (UniProt O60885); experiment: Inhibition of BRD4 in human PANC-1 cells at 2 uM incubated for 24 hrs in presence of JQ1 by immunofluorescence based analysis; format: cell-based
PANC-1 [13] = experiment: Induction of cell cycle arrest in human PANC-1 cells assessed as accumulation at G2 phase at 0.6 uM incubated for 24 hrs by PI staining based flow cytometry (reference value: 9.36 %); format: functional
PANC-1 [14] = experiment: Induction of cell cycle arrest in human PANC-1 cells assessed as accumulation at S phase at 1.2 uM incubated for 24 hrs by PI staining based flow cytometry (reference value: 38.94 %); format: functional
PANC-1 [15] = experiment: Induction of cell cycle arrest in human PANC-1 cells assessed as accumulation at G1 phase at 2.5 uM incubated for 24 hrs by PI staining based flow cytometry (reference value: 51.70 %); format: functional
PANC-1 [16] = experiment: Induction of cell cycle arrest in human PANC-1 cells assessed as accumulation at S phase at 2.5 uM incubated for 24 hrs by PI staining based flow cytometry (reference value: 38.94 %); format: functional
PANC-1 [17] = experiment: Induction of cell cycle arrest in human PANC-1 cells assessed as accumulation at S phase at 10 uM incubated for 24 hrs by PI staining based flow cytometry (reference value: 38.94 %); format: functional
PANC-1 [18] = experiment: Induction of apoptosis in human PANC-1 cells assessed as viable cells at 0.6 uM incubated for 48 hrs by Annexin V-FITC/PI staining based flow cytometry (reference value: 91.64 %); format: functional; details: read-out: Activity
PANC-1 [19] = experiment: Induction of apoptosis in human PANC-1 cells assessed as viable cells at 2.5 uM incubated for 48 hrs by Annexin V-FITC/PI staining based flow cytometry (reference value: 91.64 %); format: functional; details: read-out: Activity
PANC-1 [20] = experiment: Induction of apoptosis in human PANC-1 cells assessed as early apoptotic cells at 2.5 uM incubated for 48 hrs by Annexin V-FITC/PI staining based flow cytometry (reference value: 1.41 %); format: functional
PANC-1 [21] = experiment: Induction of apoptosis in human PANC-1 cells assessed as late apoptotic cells at 2.5 uM incubated for 48 hrs by Annexin V-FITC/PI staining based flow cytometry (reference value: 3.87 %); format: functional
PANC-1 [22] = experiment: Induction of apoptosis in human PANC-1 cells assessed as necrotic cells at 2.5 uM incubated for 48 hrs by Annexin V-FITC/PI staining based flow cytometry (reference value: 3.09 %); format: functional
PANC-1 [23] = experiment: Induction of apoptosis in human PANC-1 cells assessed as late apoptotic cells at 5 uM incubated for 48 hrs by Annexin V-FITC/PI staining based flow cytometry (reference value: 3.87 %); format: functional
PANC-1 [24] = experiment: Induction of apoptosis in human PANC-1 cells assessed as viable cells at 2 uM incubated for 48 hrs in presence of JQ1 by Annexin V-FITC/PI staining based flow cytometry (reference value: 91.64 %); format: functional; details: read-out: Activity
PANC-1 [25] = experiment: Induction of apoptosis in human PANC-1 cells assessed as early apoptotic cells at 2 uM incubated for 48 hrs in presence of JQ1 by Annexin V-FITC/PI staining based flow cytometry (reference value: 1.41 %); format: functional
PANC-1 [26] = experiment: Antitumor activity against human PANC-1 cells xenografted in BALB/c mouse assessed as reduction in tumor growth at 40 mg/kg, ip for 4 weeks administered for 5 days consecutively and 2 days without treatment on every week; format: functional, organism-based
PANC-1 [27] = experiment: Antitumor activity against human PANC-1 cells xenografted in BALB/c mouse at 40 mg/kg, ip for 4 weeks administered for 5 days consecutively and 2 days without treatment on every week in presence of JQ1 relative to control; format: functional; details: PANC-1, 672 h, read-out: TGI
[28] = Toxicity in BALB/c mouse xenografted with human PANC-1 cells assessed as pathological changes in lung at 40 mg/kg, ip for 4 weeks administered for 5 days consecutively and 2 days without treatment on every week by H and E staining based analysis; format: organism-based; details: in vivo, 672 h
[29] = Toxicity in BALB/c mouse xenografted with human PANC-1 cells assessed as pathological changes in liver at 40 mg/kg, ip for 4 weeks administered for 5 days consecutively and 2 days without treatment on every week in presence of JQ1 by H and E staining based analysis; format: organism-based; details: in vivo, 672 h
[30] = Toxicity in BALB/c mouse xenografted with human PANC-1 cells assessed as drug tolerance at 40 mg/kg, ip for 4 weeks administered for 5 days consecutively and 2 days without treatment on every week in presence of JQ1; format: organism-based; details: in vivo, 672 h

Structure (SMILES): Cc1sc2c(c1C)C(c1ccc(Cl)cc1)=N[C@@H](CC(=O)OC(C)(C)C)c1nnc(C)n1-2
- IC50 (PANC-1 [1]): < 10 µM
- IC50 (BXPC-3): < 10 µM
- IC50 (CAPAN-1): < 10 µM
- Activity (PANC-1 [2]): 59.44%
- Activity (PANC-1 [3]): 28.44%
- Activity (PANC-1 [4]): 12.12%
- Activity (PANC-1 [5]): Active
- viability at 2 µM (PANC-1 [6]): 74.4%
- Activity (PANC-1 [7]): 6.1%
- Activity (PANC-1 [8]): 14.01%
- Activity (PANC-1 [9]): 6.51%

Structure (SMILES): O=C1CCC(N2C(=O)c3cccc(NC(=O)CNCCCCCCCCCCC(=O)N4CCN(C(=O)c5cc(Cc6n[nH]c(=O)c7ccccc67)ccc5F)CC4)c3C2=O)C(=O)N1 (centres undefined)
- IC50 (PANC-1 [1]): < 10 µM
- IC50 (BXPC-3): < 10 µM
- IC50 (CAPAN-1): < 10 µM
- inhibition (PANC-1 [10]): Active
- Activity (PANC-1 [11]): Active
- inhibition [12]: Active
- Activity (PANC-1 [13]): 10.52%
- Activity (PANC-1 [14]): 42.94%
- Activity (PANC-1 [15]): 43.76%
- Activity (PANC-1 [16]): 43.26%
- Activity (PANC-1 [17]): 40.91%
- Activity (PANC-1 [2]): 43.66%
- Activity (PANC-1 [3]): 41.71%
- Activity (PANC-1 [4]): 14.63%
- Activity (PANC-1 [5]): 43.66%
- viability at 0.6 µM (PANC-1 [18]): 88.9%
- viability at 2.5 µM (PANC-1 [19]): 88.9%
- Activity (PANC-1 [20]): 4.13%
- Activity (PANC-1 [21]): 4.42%
- Activity (PANC-1 [22]): 2.55%
- Activity (PANC-1 [23]): 4.37%
- viability at 2 µM (PANC-1 [6]): 86.3%
- Activity (PANC-1 [7]): 4.35%
- Activity (PANC-1 [8]): 5.84%
- Activity (PANC-1 [9]): 3.54%
- viability at 2 µM (PANC-1 [24]): 64.3%
- Activity (PANC-1 [25]): 8.77%
- Activity (PANC-1 [26]): Active
- inhibition in vivo at 40 mg/kg (PANC-1 [27]): ≤ 98.5%
- Activity [28]: Non-toxic
- Activity [29]: Non-toxic
- Activity [30]: Non-toxic

Structure (SMILES): O=C(c1cc(Cc2n[nH]c(=O)c3ccccc23)ccc1F)N1CCN(C(=O)C2CC2)CC1 [OLAPARIB]
- IC50 (PANC-1 [1]): < 10 µM
- IC50 (BXPC-3): < 10 µM
- IC50 (CAPAN-1): < 10 µM
- inhibition (PANC-1 [10]): Active
- Activity (PANC-1 [11]): Active
- inhibition [12]: Active
- Activity (PANC-1 [13]): 10.68%
- Activity (PANC-1 [14]): 41%
- Activity (PANC-1 [15]): 44.32%
- Activity (PANC-1 [16]): 41.49%
- Activity (PANC-1 [17]): 44.95%
- Activity (PANC-1 [2]): 45.99%
- Activity (PANC-1 [3]): 39.4%
- Activity (PANC-1 [4]): 14.61%
- viability at 0.6 µM (PANC-1 [18]): 90.3%
- viability at 2.5 µM (PANC-1 [19]): 89.2%
- Activity (PANC-1 [20]): 2.76%
- Activity (PANC-1 [21]): 4.53%
- Activity (PANC-1 [22]): 3.45%
- Activity (PANC-1 [23]): 4.7%
- viability at 2 µM (PANC-1 [6]): 89.7%
- Activity (PANC-1 [7]): 3.48%
- Activity (PANC-1 [8]): 4.61%
- Activity (PANC-1 [9]): 2.23%
- viability at 2 µM (PANC-1 [24]): 68.3%
- Activity (PANC-1 [25]): 5.44%
- Activity (PANC-1 [26]): Active
- inhibition in vivo at 40 mg/kg (PANC-1 [27]): 80.7%
- Activity [28]: Non-toxic
- Activity [29]: Non-toxic
- Activity [30]: Non-toxic
